Assays:
[1] = tested on: Green Peach Aphid (Myzus Persicae); experiment: Test of preventive value against green peach aphid (Test Example 1); assay type: in vivo; conditions: 500 ppm, sprayed over stems and leaves of potted Chinese cabbages, sixth day after spraying
Procedure: Test of Preventive Value Against Green Peach Aphid (Myzus Persicae)
Chinese cabbages were planted in plastic pots, each with a size of 8 cm in diameter and 8 cm in height, after which green peach aphids were propagated and the number of parasitic insects was examined in each pot. An oxazepine compound or salt thereof expressed by General Formula (I) according to the present invention was dispersed in water and the dispersion was diluted to 500 ppm in the form of a reagent, after which the reagent was sprayed over stems and leaves of potted Chinese cabbages and let dry under wind, and the pots were kept in a greenhouse, and on the sixth day after the reagent was sprayed, the number of green peach aphids living parasitically on each Chinese cabbage was examined and the preventive value was calculated based on the formula below, and judgment was made according to the criteria below. Preventive value=100−{(T×Ca)/(Ta×C)}×100 [Mathematical Formula 1] • Ta: Number of parasitic insects inside the treatment area before spraying • T: Number of parasitic insects inside the treatment area after spraying • Ca: Number of parasitic insects inside the non-treatment area before spraying • C: Number of parasitic insects inside the non-treatment area after spraying Judgment Criteria • A - - - Preventive value: 100% • B - - - Preventive value: 99%˜90% • C - - - Preventive value: 89%˜80% • D - - - Preventive value: 79%˜50%

[2] = tested on: Small Brown Planthopper (Laodelphax Striatellus); experiment: Test of insecticidal efficacy against small brown planthopper (Test Example 2); assay type: in vivo; conditions: 500 ppm, rice plants soaked 30 seconds, third-instar larvae, eight days after inoculation; criteria same as in Test Example 1
Text: Test of Insecticidal Efficacy Against Small Brown Planthopper (Laodelphax Striatellus)

| SMILES | Preventive value, judgment [1] | Corrected insect mortality, judgment [2] |
| --- | --- | --- |
| C#CCN1C(=O)c2nn(-c3cccnc3)cc2Oc2c(F)cccc21 [1-8] | A to D | A to D |
| N#CCN1C(=O)c2nn(-c3cccnc3)cc2Oc2c(F)cccc21 [1-9] | A to D | A to D |
| C#CCN1C(=O)c2nn(-c3cccnc3)cc2Oc2cc(F)ccc21 [1-12] | A to D | A to D |
| O=C1Nc2cc(F)ccc2Oc2cn(-c3cccnc3)nc21 [1-14] | A to D | A to D |
| CN1C(=O)c2nn(-c3cccnc3)cc2Oc2ccc(F)cc21 [1-15] | A to D | A to D |
| C#CCN1C(=O)c2nn(-c3cccnc3)cc2Oc2ccc(F)cc21 [1-16] | A to D | A to D |
| N#CCN1C(=O)c2nn(-c3cccnc3)cc2Oc2ccc(F)cc21 [1-17] | A to D | A to D |
| CN1C(=O)c2nn(-c3cccnc3)cc2Oc2cccc(F)c21 [1-19] | A to D | A to D |
| CN1C(=O)c2nn(-c3cccnc3)cc2Oc2c(Cl)cccc21 [1-23] | A to D | A to D |
| O=C1Nc2ccc(Cl)cc2Oc2cn(-c3cccnc3)nc21 [1-26] | A to D | A to D |
| CN1C(=O)c2nn(-c3cccnc3)cc2Oc2cc(Cl)ccc21 [1-27] | A to D | A to D |
| C#CCN1C(=O)c2nn(-c3cccnc3)cc2Oc2cc(Cl)ccc21 [1-28] | A to D | A to D |
| N#CCN1C(=O)c2nn(-c3cccnc3)cc2Oc2cc(Cl)ccc21 [1-29] | A to D | A to D |
| Cc1ccc2c(c1)Oc1cn(-c3cccnc3)nc1C(=O)N2 [1-30] | A to D | A to D |
| C#CCN1C(=O)c2nn(-c3cccnc3)cc2Oc2cc(C)ccc21 [1-32] | A to D | A to D |
| Cc1ccc2c(c1)Oc1cn(-c3cccnc3)nc1C(=O)N2CC#N [1-33] | A to D | A to D |
| CN1C(=O)c2nn(-c3cccnc3)cc2Oc2cc(C(F)(F)F)ccc21 [1-34] | A to D | A to D |
| C#CCN1C(=O)c2nn(-c3cccnc3)cc2Oc2cc(C(F)(F)F)ccc21 [1-35] | A to D | A to D |
| N#CCN1C(=O)c2nn(-c3cccnc3)cc2Oc2cc(C(F)(F)F)ccc21 [1-36] | A to D | A to D |
| O=C1Nc2cc(C(F)(F)F)ccc2Oc2cn(-c3cccnc3)nc21 [1-37] | A to D | A to D |
| CN1C(=O)c2nn(-c3cccnc3)cc2Oc2ccc(C(F)(F)F)cc21 [1-38] | A to D | A to D |
| COc1ccc2c(c1)Oc1cn(-c3cccnc3)nc1C(=O)N2 [1-39] | A to D | A to D |
| COc1ccc2c(c1)Oc1cn(-c3cccnc3)nc1C(=O)N2C [1-40] | A to D | A to D |
| C#CCN1C(=O)c2nn(-c3cccnc3)cc2Oc2cc(OC)ccc21 [1-41] | A to D | A to D |
| COc1ccc2c(c1)Oc1cn(-c3cccnc3)nc1C(=O)N2CC#N [1-42] | A to D | A to D |

| SMILES | Preventive value, judgment [1] | Corrected insect mortality, judgment [2] |
| --- | --- | --- |
| Nc1ccc2c(c1)NC(=O)c1nn(-c3cccnc3)cc1O2 [1-44] | A to D | A to D |
| CN1C(=O)c2nn(-c3cccnc3)cc2Oc2ccc(N)cc21 [1-45] | A to D | A to D |
| CN(C)c1ccc2c(c1)N(C)C(=O)c1nn(-c3cccnc3)cc1O2 [1-46] | A to D | A to D |
| CN1C(=O)c2nn(-c3cccnc3)cc2Oc2cc(C#N)ccc21 [1-47] | A to D | A to D |
| C#CCN1C(=O)c2nn(-c3cccnc3)cc2Oc2cc(C#N)ccc21 [1-48] | A to D | A to D |
| N#Cc1ccc2c(c1)NC(=O)c1nn(-c3cccnc3)cc1O2 [1-50] | A to D | A to D |
| CCCCN1C(=O)c2nn(-c3cccnc3)cc2Oc2ccccc21 [1-51] | A to D | A to D |
| CCCCCCN1C(=O)c2nn(-c3cccnc3)cc2Oc2ccccc21 [1-52] | A to D | A to D |
| CCCCCCCCN1C(=O)c2nn(-c3cccnc3)cc2Oc2ccccc21 [1-53] | A to D | A to D |
| C=CCN1C(=O)c2nn(-c3cccnc3)cc2Oc2ccccc21 [1-55] | A to D | A to D |
| COc1ccc(CN2C(=O)c3nn(-c4cccnc4)cc3Oc3ccccc32)cc1 [1-56] | A to D | A to D |
| O=C1c2nn(-c3cccnc3)cc2Oc2ccccc2N1Cc1ccccn1 [1-57] | A to D | A to D |
| O=C1c2nn(-c3cccnc3)cc2Oc2ccccc2N1Cc1cccnc1 [1-58] | A to D | A to D |
| O=C1c2nn(-c3cccnc3)cc2Oc2ccccc2N1CCc1ccccc1 [1-62] | A to D | A to D |
| COCN1C(=O)c2nn(-c3cccnc3)cc2Oc2ccccc21 [1-67] | A to D | A to D |
| COCCN1C(=O)c2nn(-c3cccnc3)cc2Oc2ccccc21 [1-68] | A to D | A to D |
| O=C1c2nn(-c3cccnc3)cc2Oc2ccccc2N1CCN1CCCCC1 [1-70] | A to D | A to D |
| O=C1c2nn(-c3cccnc3)cc2Oc2ccccc2N1CCN1CCOCC1 [1-71] | A to D | A to D |
| CC(=O)N1C(=O)c2nn(-c3cccnc3)cc2Oc2ccccc21 [1-73] | A to D | A to D |
| COC(=O)CN1C(=O)c2nn(-c3cccnc3)cc2Oc2ccccc21 [1-74] | A to D | A to D |
| CC(C)(C)OC(=O)CN1C(=O)c2nn(-c3cccnc3)cc2Oc2ccccc21 [1-75] | A to D | A to D |
| O=C(CN1C(=O)c2nn(-c3cccnc3)cc2Oc2ccccc21)c1ccc(Cl)cc1 [1-76] | A to D | A to D |
| CC(C#N)N1C(=O)c2nn(-c3cccnc3)cc2Oc2ccccc21 (stereo not shown) [1-77] | A to D | A to D |
| CN1C(=O)c2nn(-c3cncnc3)cc2Oc2ccccc21 [1-79] | A to D | A to D |
| CN1C(=O)c2nn(-c3cncc(F)c3)cc2Oc2cc(F)ccc21 [1-80] | A to D | A to D |

Reference: patent publication US10100061B2, “Oxazepine compound and agricultural/horticultural insecticide containing said compound as active ingredient, and method for using the same” (NIHON NOHYAKU CO., LTD., priority 2014, dated 2018)
